From patent EP3592343B1, “CANCER IMMUNOTHERAPY USING VIRUS PARTICLES” (Case Western Reserve University, priority 2017, dated 2018)

Experiments:
B16F10 melanoma cells = test: MTT cell viability assay, B16F10; type: cell-based, murine; conditions: Mus musculus, B16-F10, 24 h exposure then 48 h
Protocol: B16F10 cells (ATCC) were cultured in Dulbecco's modified Eagle's media (DMEM, Life Technologies), supplemented with 10% (v/v) fetal bovine serum (FBS, Atlanta Biologicals) and 1% (v/v) penicillin-streptomycin (penstrep, Life Technologies). Cells were maintained at 37°C, 5% CO2. Confluent cells were removed with 0.05% (w/v) trypsin-EDTA (Life Technologies), seeded at 2 x 10^3 cells/100µL/well in 96-well plates, and grown overnight at 37°C, 5% CO2. The next day, cells were washed 2 times with PBS and incubated with free DOX or PVX-DOX corresponding to 0, 0.01, 0.05, 0.1, 0.5, 1, 5, or 10 µM DOX for 24 h, in triplicate. A PVX only control corresponded to the amount of PVX in the highest PVX-DOX sample. Following incubation, cells were washed 2 times to remove unbound DOX or particles. Fresh medium (100 µL) was added and cells were returned to the […] incubator for 48 h.

[1] = system: A2780 human ovarian cancer; test: MTT cytotoxicity evaluation, A2780; type: cell-based
Protocol: (§1) A2780, a gift from Dr. Analisa DiFeo (Case Western Reserve University) were cultured in Dulbecco's modified Eagle's media (DMEM, Life Technologies), supplemented with 10% (v/v) fetal bovine serum (FBS, Atlanta Biologicals) and 1% (v/v) penicillin-streptomycin (penstrep, Life Technologies). HeLa (ATCC) were cultured in minimum essential media (MEM, Life Technologies), supplemented with 10% (v/v) FBS, 1% (v/v) penstrep, and 1% (v/v) L-glutamine (Life Technologies). MDA-MB-231, a gift from Dr. Ruth Keri (Case Western Reserve University), were cultured in Roswell Park Memorial Institute (RPMI, Life Technologies) medium supplemented with 10% (v/v) FBS, 1% (v/v) penstrep, and 1% (v/v) L-glutamine. All cells were maintained at 37°C and 5% CO2.
(§2) Confluent cells were removed with 0.05% (w/v) trypsin-EDTA (Life Technologies), seeded at either 2 × 10^3 cells/100 µL/well (MDA-MB-231 and HeLa) or 5 × 10^3 cells/100 µL/well (A2780) in 96-well plates and grown overnight at 37°C, 5% CO2. The next day, cells were washed 2 times with PBS and incubated with free DOX, PVX-DOX, or PEG-PVX-DOX corresponding to 0, 0.01, 0.05, 0.1, 0.5, 1, 5, or 10 µM (A2780, MDA-MB-231) or 0, 0.1, 0.5, 1, 5, 10, 25, or 50 µM (HeLa) DOX for 24 h, in triplicate. A PVX only control corresponded to the amount of PVX in the highest PVX-DOX sample. Following incubation, cells were washed 2 times to remove unbound DOX or particles. […]

[2] = system: MDA-MB-231 human breast cancer; test: MTT cytotoxicity evaluation, MDA-MB-231; type: cell-based; conditions: MDA-MB-231, 24 h exposure then 48 h, MTT assay
Protocol: as §1, §2

[3] = system: HeLa human cervical cancer; test: MTT cytotoxicity evaluation, HeLa; type: cell-based; conditions: 24 h exposure then 48 h, MTT assay
Protocol: as §1, §2

A2780 cells = test: tracking of free DOX and PVX-DOX in cells (fluorescence microscopy); type: cell-based, human; conditions: 1.5 µM DOX, at 48 h
Protocol: A2780 cells were grown to confluency and removed with 0.05% (w/v) trypsin-EDTA. Cells were seeded at 1 × 10^4 cells/500 µL/well on coverslips in untreated 24-well plates and grown overnight at 37°C, 5% CO2. The next day, cells were washed 3 times and incubated with free DOX or PVX-DOX (1.5 µM DOX) for 2, 4, 12, 24, or 48 h. Following incubation, cells were washed 3 times and fixed in DPBS (Corning) containing 5% (v/v) paraformaldehyde (Electron Microscopy Sciences) and 0.3% (v/v) glutaraldehyde (Polysciences) for 10 min at room temperature. Coverslips were mounted using Fluoroshield (Sigma). Slides were imaged on a Zeiss Axio Observer Z1 motorized FL inverted microscope. Fluorescence intensity was analysed as follows using ImageJ 1.47d. All images were identically processed prior to fluorescence intensity measurement. Nuclei were selected and analyzed for fluorescence intensity using the measure feature of ImageJ. For each sample, a minimum of 3 images was analyzed and at least 4 cells were analyzed per image.

MDA-MB-231 tumors = test: MDA-MB-231 tumor-bearing athymic mouse model, intravenous treatment; type: in vivo, NCR nu/nu mice; conditions: 1 mg/kg DOX i.v. every 5 days
Protocol: All experiments were conducted in accordance with Case Western Reserve University's Institutional Animal Care and Use Committee. Female NCR nu/nu mice (6 weeks old) were injected subcutaneously into the right flank with 2 × 10^6 MDA-MB-231 cells suspended in 100 µL of media and Matrigel (Corning) at a 1:1 ratio. When tumors reached 100-200 mm^3, a dosage of 1.0 mg/kg body weight DOX was injected intravenously (this dosage corresponds to 1.0 - 2.0 mg PVX depending on batches). Groups of 4 animals each were treated with PEG-PVX-DOX, free DOX, or PBS. The dosage was normalized to the DOX content. Treatments were performed every 5 days, and a total of 5 treatments was given.
Tumors were measured daily and total volume was calculated using the formula: v = (l × w^2)/2. Mice were euthanized following 25 days of treatment.

COc1cccc2c1C(=O)c1c(O)c3c(c(O)c1C2=O)C[C@@](O)(C(=O)CO)C[C@@H]3O[C@H]1C[C@H](N)[C@H](O)[C@H](C)O1 [DOX, doxorubicin]
IC50 (B16F10 melanoma cells): 280 nM
cell killing effectiveness relative to PVX-DOX ([1]; A2780, MTT assay): 4 times
IC50 ([1]; Homo sapiens, A2780, 24 h exposure then 48 h, MTT assay): 220 nM
IC50 [2]: 130 nM
IC50 [3]: 1600 nM
drug-induced apoptosis (A2780 cells): apparent
day post first treatment from which differences to PBS were statistically significant (MDA-MB-231 tumors; p<0.05): > 22 days
tumor volumes smaller than the PBS control (MDA-MB-231 tumors; at the end of the treatment, 5 injections): 2.1 times
